# Laboratory results published in PMC12024912, “Druggability Studies of Benzene Sulfonamide Substituted Diarylamide (E3) as a Novel Diuretic” (Biomedicines, 2025).
# Tests used:
# [1] = Liver microsome metabolic stability, rat; format: in vitro ADME; conditions: 60 min incubation, 37 °C
# Description: Plasma from mice, rats, rabbits, and humans was obtained from blood after centrifugation at 3000 r/min for 10 min. Simulated gastric fluid (SGF, pH = 1, containing pepsin) and simulated intestinal fluid (SIF, pH = 6.8, containing trypsin) were configured previously in the experiments. SD rats and mice were collected, and after removing the mucus layer from the small intestine and colon, 20 times the volume of liquid bacterial culture medium was added. An intestinal microbiota suspension was obtained after anaerobic cultivation on a shaking table at 37 °C for 12 h. In the aforementioned systems, E3 was added at a final concentration of 1 μmol/L at 37 °C for different incubation times (0, 10, 20, 30, 60, 120, and 240 min). In liver metabolic stability assays, E3 was incubated with liver microsomes or liver homogenate from mice or rats for 60 min at 37 °C. The stop solution, 5 ng/mL tolbutamide (internal standard, IS) in acetonitrile, was added to stop the metabolic process. Post-centrifugation (18,000× g, 10 min, 4 °C), supernatants were subjected to liquid chromatography–tandem mass spectrometry (LC–MS/MS). Analyte-to-IS peak area ratios quantified residual percentages via Equation (2):Remaining% = (E3peak area/ISpeak area at different time)/(E3peak area/ISpeak area at 0 min) × 100%.(2)
# SD rats = test: Long-term (7 d) diuretic activity in rats; format: in vivo, rat; conditions: for ALT / AST / Body weight / Brain index / Heart index / Kidney index / Liver index / Serum K / Serum Na / Serum creatinine / Serum urea / Spleen index / Testis index: n=6
# Description: In a single-dose administration experiment, male wild-type (WT) mice, UT-B^−/− mice, UT-A1^−/− mice, or SD rats were adapted in metabolic cages for 3 d. Food and water were provided ad libitum throughout the experiment. Prior to administration, the bladder of each animal was emptied through gentle abdominal massage, and urine was collected from the metabolic cages every 2 h. Compound E3, suspended in 0.5% CMC-Na at an appropriate concentration, was administered intragastric gavage to the mice or rats (0.16, 0.8, 4, or 20 mg/kg). Vehicle control comprised 0.5% (w/v) CMC-Na. Urinary parameters were determined through the following: volume: Gravimetric analysis (1 g/mL density assumption); osmolality: freezing-point osmometry (Micro-osmometer, Fisker Associates, Norwood, MA, USA); and urea: diacetyl oxime colorimetry (QuantiChrom® kit, Elabscience, Wuhan, China). In long-term (7 d) diuretic activity experiments, male WT mice, UT-B^−/− mice, UT-A1^−/− mice, and SD rats were acclimatized in metabolic cages (Ugo Basile, Comerio, VA, Italy) for 3 d. Food and water were provided ad libitum throughout the experiment. E3 was suspended in 0.5% CMC-Na and administered at a dose of 4 or 20 mg/kg by intragastric gavage. Urine was collected by metabolic cages every 24 h. Body weight was measured daily. At 4 h after the final administration, a blood sample was obtained by heart puncture. Inner medulla and outer medulla tissue homogenates were prepared, and the supernatant after centrifugation was analyzed for solute concentration and osmolality. Urinary osmolality and urea concentration were measured as above. Serum Na^+, K^+, and Cl^− were measured in a clinical chemistry laboratory, while serum creatinine, ALT, and AST were measured through specific reagent kits (NJJC Bio, Nanjing, China).
# Multiple tissues and organs were fixed with 4% paraformaldehyde and embedded in paraffin. Five μm paraffin sections were cut and stained with hematoxylin and eosin (H&E).
# Inner medulla tissues were homogenized in ice-cold RIPA buffer supplemented with protease/phosphatase inhibitors (Roche, Basel, Switzerland). Following centrifugation (12,000× g, 15 min, 4 °C), supernatants were subjected to BCA quantification (Thermo Scientific, Waltham, MA, USA). Protein lysates underwent SDS-PAGE separation and electrotransfer to PVDF membranes (Amersham Biosciences, Boston, MA, USA). After 2 h blocking with 5% skimmed milk, membranes were sequentially processed with: (1) TBST washes (20 mM Tris-HCl, 137 mM NaCl, 0.1% Tween-20, pH 7.4); (2) primary antibodies (UT-A1/A2/A3, UT-B, AQP2/3, β-actin; 4 °C, 12 h); and (3) HRP-conjugated secondary antibodies (anti-mouse/rabbit IgG; RT, 2 h). Chemiluminescent detection employed the ECL reagent (Meilunbio, Dalian, China) on a Syngene GeneGnome XRQ system, with band quantification via ImageJ (v1.53k).
structure (smiles),measurement,setting,value
"CC(=O)c1ccc(C(=O)Nc2cccc(NS(=O)(=O)c3ccccc3)c2)o1 [Compound E3, 5-acetyl-N-(3-(phenylsulfonamido)phenyl)furan-2-carboxamide]","remaining amount, rat liver microsomes",[1],61.1%
same,urine output,"SD rats; 4 mg/kg and 20 mg/kg intragastric, 7 d",continuously increased
same,ALT,"SD rats; 4 mg/kg, 7 d",42.2±5.5 U/L
same,AST,"SD rats; 4 mg/kg, 7 d",113.0±10.6 U/L
same,Body weight,"SD rats; 4 mg/kg, 7 d",242.4 ± 2.3 g
same,Brain index,"SD rats; 4 mg/kg, 7 d",0.58±0.01%
same,Heart index,"SD rats; 4 mg/kg, 7 d",0.38±0.01%
same,Kidney index,"SD rats; 4 mg/kg, 7 d",0.78±0.03%
same,Liver index,"SD rats; 4 mg/kg, 7 d",3.98±0.08%
same,Serum K,"SD rats; 4 mg/kg, 7 d",5.16 ± 0.10 mM
same,Serum Na,"SD rats; 4 mg/kg, 7 d",140.7 ± 1.2 mM
same,Serum creatinine,"SD rats; 4 mg/kg, 7 d",33.6 ± 1.7 µM
same,Serum urea,"SD rats; 4 mg/kg, 7 d",7.15 ± 0.16 mM
same,Spleen index,"SD rats; 4 mg/kg, 7 d",0.30±0.02%
same,Testis index,"SD rats; 4 mg/kg, 7 d",0.88±0.06%
same,ALT,"SD rats; 20 mg/kg, 7 d",40.2±1.9 U/L
same,AST,"SD rats; 20 mg/kg, 7 d",112.9±4.5 U/L
same,Body weight,"SD rats; 20 mg/kg, 7 d",240.8 ± 4.1 g
same,Brain index,"SD rats; 20 mg/kg, 7 d",0.64±0.01%
same,Heart index,"SD rats; 20 mg/kg, 7 d",0.40±0.01%
same,Kidney index,"SD rats; 20 mg/kg, 7 d",0.73±0.03%
same,Liver index,"SD rats; 20 mg/kg, 7 d",3.99±0.06%
same,Serum K,"SD rats; 20 mg/kg, 7 d",4.98 ± 0.12 mM
same,Serum Na,"SD rats; 20 mg/kg, 7 d",141.3 ± 1.0 mM
same,Serum creatinine,"SD rats; 20 mg/kg, 7 d",34.1 ± 1.6 µM
same,Serum urea,"SD rats; 20 mg/kg, 7 d",7.18 ± 0.19 mM
same,Spleen index,"SD rats; 20 mg/kg, 7 d",0.29±0.01%
same,Testis index,"SD rats; 20 mg/kg, 7 d",0.94±0.02%
same,excretion of non-urea solutes,"SD rats; 4 and 20 mg/kg, 7 d",did not change
same,urine osmolality,"SD rats; 4 and 20 mg/kg, 7 d",significantly decreased
same,H&E staining of cortex and medulla of rat kidneys,"SD rats; 7 d, except dilatation of the collecting duct due to polyuria",did not induce morphological abnormalities
same,non-urea solutes in inner medullary tissue,"SD rats; 7 d, vs control",did not change
same,osmolality in inner medullary tissue,"SD rats; 7 d, vs control",significantly decreased
same,"outer medullary osmolality, urea concentration, and non-urea solute concentration","SD rats; 7 d, vs control",no differences
same,urea concentration in inner medullary tissue,"SD rats; 7 d, vs control",significantly decreased
same,"body weight, organ indexes, blood biochemical parameters (incl. serum Na+, K+, Cl−)","SD rats; after 7 d of treatment, vs control",no significant difference
